These molecules were tested against T1, human TRPM8 (Homo sapiens, UniProt Q7Z2W7) (assay: Menthol-induced Ca2+ influx in HEK293 cells stably expressing human TRPM8). Settings: 30 microM menthol-induced Ca2+ influx, read-out: IC50 against TRPM8.
T1 construct: expressed in transfected cells; host or cells: HEK293
Assay type: cell-based
In short: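 HEK293 cells stably expressing human TRPM8 were loaded with Fluo4-AM for 1 h at room temperature, preincubated 5 min with compound, then challenged with 30 microM menthol. Calcium rise was read by FDSS imaging. IC50 came from 11-point curves using duplicate-well means.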

T1 sequence (Q7Z2W7 whole entry): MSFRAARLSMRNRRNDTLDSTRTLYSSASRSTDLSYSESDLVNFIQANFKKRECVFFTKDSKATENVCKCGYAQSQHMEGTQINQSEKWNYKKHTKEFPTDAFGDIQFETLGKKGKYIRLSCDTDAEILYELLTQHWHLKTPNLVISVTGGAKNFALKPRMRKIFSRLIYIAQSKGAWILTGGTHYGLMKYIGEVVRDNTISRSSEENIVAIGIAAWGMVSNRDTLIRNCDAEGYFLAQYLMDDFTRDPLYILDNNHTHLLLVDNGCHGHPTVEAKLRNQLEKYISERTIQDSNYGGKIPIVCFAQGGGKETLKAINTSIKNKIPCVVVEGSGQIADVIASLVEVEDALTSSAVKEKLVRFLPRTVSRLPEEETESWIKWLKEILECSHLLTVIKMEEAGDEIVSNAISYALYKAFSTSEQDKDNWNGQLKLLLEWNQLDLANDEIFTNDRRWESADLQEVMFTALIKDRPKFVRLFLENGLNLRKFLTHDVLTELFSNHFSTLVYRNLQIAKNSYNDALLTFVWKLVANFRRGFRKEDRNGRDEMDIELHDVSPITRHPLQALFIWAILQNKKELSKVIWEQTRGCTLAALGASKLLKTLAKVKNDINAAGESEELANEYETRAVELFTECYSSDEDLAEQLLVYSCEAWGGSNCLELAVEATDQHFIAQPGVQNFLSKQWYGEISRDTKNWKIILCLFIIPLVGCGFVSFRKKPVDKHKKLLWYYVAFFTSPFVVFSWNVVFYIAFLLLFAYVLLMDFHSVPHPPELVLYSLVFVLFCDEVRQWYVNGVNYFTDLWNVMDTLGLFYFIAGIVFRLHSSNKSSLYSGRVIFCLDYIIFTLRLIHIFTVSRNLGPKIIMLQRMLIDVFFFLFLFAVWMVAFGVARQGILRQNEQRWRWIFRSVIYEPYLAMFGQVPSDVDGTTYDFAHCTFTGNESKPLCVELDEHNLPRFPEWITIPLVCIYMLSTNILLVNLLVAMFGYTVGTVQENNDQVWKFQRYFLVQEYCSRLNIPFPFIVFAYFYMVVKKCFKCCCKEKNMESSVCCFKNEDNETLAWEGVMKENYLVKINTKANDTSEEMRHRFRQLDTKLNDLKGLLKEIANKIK

Compound	IC50 [nM]
COc1ccccc1-c1ccc(C(=O)CN2C(=O)NC3(CCCCC3)C2=O)cn1 [Example 9-3]	< 10
O=C(CN1C(=O)NC2(CCCCC2)C1=O)c1ccc(-c2ccccc2F)nc1 [Example 9-4]	< 100
O=C(CN1C(=O)NC2(CCCCC2)C1=O)c1ccc(-c2ccccc2CO)nc1 [Example 9-5]	< 100
O=C(CN1C(=O)NC2(CCCCC2)C1=O)c1ccc(-c2ccccc2C(F)(F)F)nc1 [Example 9-6]	< 100
Cc1ncccc1-c1ccc(C(=O)CN2C(=O)NC3(CCCCC3)C2=O)cn1 [Example 9-7]	< 100
N#Cc1ccccc1-c1ccc(C(=O)CN2C(=O)NC3(CCCCC3)C2=O)cn1 [Example 9-8]	< 100
N#Cc1cccc(-c2ccc(C(=O)CN3C(=O)NC4(CCCCC4)C3=O)cn2)c1 [Example 9-9]	< 100
O=C(CN1C(=O)NC2(CCC(F)(F)CC2)C1=O)c1ccc(-c2cccc3[nH]ccc23)nc1 [Example 9-10]	< 10
Cc1ccccc1-c1ccc(C(=O)CN2C(=O)NC3(CCC(F)(F)CC3)C2=O)cn1 [Example 9-11]	< 10
O=C(CN1C(=O)NC2(CCC(F)(F)CC2)C1=O)c1ccc(-c2cccc3ccncc23)nc1 [Example 9-12]	< 10
O=C(CN1C(=O)NC2(CCC(F)(F)CC2)C1=O)c1ccc(-c2cccc3cccnc23)nc1 [Example 9-13]	< 100
O=C(CN1C(=O)NC2(CCC(F)(F)CC2)C1=O)c1ccc(-c2cccc3[nH]ncc23)nc1 [Example 9-14]	< 100
Cc1ncccc1-c1ccc(C(=O)CN2C(=O)NC3(CCC(F)(F)CC3)C2=O)cn1 [Example 9-15]	< 100
O=C(CN1C(=O)NC2(CCC(F)(F)CC2)C1=O)c1ccc(-c2cncc3ccccc23)nc1 [Example 9-16]	< 100
O=C(CN1C(=O)NC2(CCC(F)(F)CC2)C1=O)c1ccc(-c2ccccc2CO)nc1 [Example 9-17]	< 100
O=C(CN1C(=O)NC2(CCC(F)(F)CC2)C1=O)c1ccc(-c2ccnc3ccccc23)nc1 [Example 9-18]	< 100
O=C1Cc2c(cccc2-c2ccc(C(=O)CN3C(=O)NC4(CCC(F)(F)CC4)C3=O)cn2)N1 [Example 9-19]	< 100
CCc1ccccc1-c1ccc(C(=O)CN2C(=O)NC3(CCC(F)(F)CC3)C2=O)cn1 [Example 9-20]	< 100
O=C(CN1C(=O)NC2(CCC(F)(F)CC2)C1=O)c1ccc(-c2cccc3cnccc23)nc1 [Example 9-21]	< 100
O=C(CN1C(=O)NC2(CCC(F)(F)CC2)C1=O)c1ccc(-c2ccnc3[nH]ccc23)nc1 [Example 9-22]	< 100
O=C(CN1C(=O)NC2(CCC(F)(F)CC2)C1=O)c1ccc(-c2cncc3[nH]ccc23)nc1 [Example 9-23]	< 100

More lines, now with the values ahead:

IC50 [nM]	Compound
< 100	O=C(CN1C(=O)NC2(CCC(F)(F)CC2)C1=O)c1ccc(-c2cnccc2CO)nc1 [Example 9-24]
< 100	O=C(CN1C(=O)NC2(CCC(F)(F)CC2)C1=O)c1ccc(-c2cccnc2CO)nc1 [Example 9-25]
< 500	O=C(CN1C(=O)NC2(CCC(F)(F)CC2)C1=O)c1ccc(-c2ccnc3[nH]ncc23)nc1 [Example 9-26]
< 500	O=C(CN1C(=O)NC2(CCC(F)(F)CC2)C1=O)c1ccc(-c2cncc3[nH]ncc23)nc1 [Example 9-27]
< 100	Cc1ncccc1-c1ccc(C(=O)CN2C(=O)NC3(CCC(F)(F)CC3)C2=O)nc1 [Example 10-1]
< 100	Cc1ccccc1-c1ccc(C(=O)CN2C(=O)NC3(CCC(F)(F)CC3)C2=O)nc1 [Example 10-2]
< 100	Cc1cc(C(=O)CN2C(=O)NC3(CCCCC3)C2=O)cnc1-c1ccccc1C#N [Example 11-1]
< 100	Cc1cc(C(=O)CN2C(=O)NC3(CCCCC3)C2=O)cnc1-c1ccccc1 [Example 11-2]
< 10	Cc1ncccc1-c1cnc(C(=O)CN2C(=O)NC3(CCC(F)(F)CC3)C2=O)cn1 [Example 12-1]
< 100	Cc1ccccc1-c1cnc(C(=O)CN2C(=O)NC3(CCC(F)(F)CC3)C2=O)cn1 [Example 12-2]
